Results reported in the CheMixHub ionic liquid set.

Test: xn = mol fraction of the nth substance listed
Settings: 100 kPa

C[NH+](C)CCC=C1c2ccccc2CCc2ccccc21.[Cl-] + CCCC[n+]1ccn(C)c1.[Cl-] + O
electrical conductivity [S/m]
Settings | 298 K | 303 K | 308 K | 313 K | 318 K
x2 = 0.00018, x1 = 0.0007057 | 0.498 | 0.501 | 0.511 | 0.509 | 0.527
x2 = 0.00018, x1 = 0.0007396 | 0.512 | 0.519 | 0.535 | 0.522 | 0.55
x2 = 0.00018, x1 = 0.000773 | 0.524 | 0.533 | 0.538 | 0.536 | 0.564
x2 = 0.00018, x1 = 0.0008057 | 0.543 | 0.55 | 0.551 | 0.561 | 0.581
x2 = 0.00018, x1 = 0.0008382 | 0.56 | 0.564 | 0.566 | 0.57 | 0.595
x2 = 0.00018, x1 = 0.0008701 | 0.569 | 0.578 | 0.58 | 0.587 | 0.613
x2 = 0.00018, x1 = 0.0009016 | 0.579 | 0.589 | 0.597 | 0.602 | 0.629
x2 = 0.00018, x1 = 0.0009322 | 0.591 | – | 0.611 | 0.62 | –
x2 = 0.0001801, x1 = 8.875e-05 | 0.189 | 0.186 | 0.193 | 0.19 | 0.188
x2 = 0.0001801, x1 = 0.0001104 | 0.201 | 0.198 | 0.203 | 0.202 | 0.202
x2 = 0.0001801, x1 = 0.0001321 | 0.215 | 0.209 | 0.216 | 0.212 | 0.21
x2 = 0.0001801, x1 = 0.0001534 | 0.227 | 0.223 | 0.228 | 0.224 | 0.224
x2 = 0.0001801, x1 = 0.0001747 | 0.24 | 0.235 | 0.239 | 0.238 | 0.235
x2 = 0.0001801, x1 = 0.0001956 | 0.251 | 0.248 | 0.247 | 0.249 | 0.249
x2 = 0.0001801, x1 = 0.0002165 | 0.272 | 0.27 | 0.274 | 0.259 | 0.26
x2 = 0.0001801, x1 = 0.0002578 | 0.293 | 0.288 | 0.293 | 0.277 | 0.285
x2 = 0.0001801, x1 = 0.0002984 | 0.313 | 0.306 | 0.315 | 0.301 | 0.31
x2 = 0.0001801, x1 = 0.0003383 | 0.328 | 0.328 | 0.335 | 0.321 | 0.332
x2 = 0.0001801, x1 = 0.0003776 | 0.348 | 0.345 | 0.353 | 0.34 | 0.351
x2 = 0.0001801, x1 = 0.0004164 | 0.365 | 0.368 | 0.37 | 0.357 | 0.374
x2 = 0.0001801, x1 = 0.0004544 | 0.385 | 0.383 | 0.388 | 0.381 | 0.392
x2 = 0.0001801, x1 = 0.0004919 | 0.406 | 0.401 | 0.407 | 0.397 | 0.413
x2 = 0.0001801, x1 = 0.0005289 | 0.42 | 0.416 | 0.427 | 0.42 | 0.431
x2 = 0.0001801, x1 = 0.0005653 | 0.437 | 0.435 | 0.44 | 0.433 | 0.455
x2 = 0.0001801, x1 = 0.0006012 | 0.451 | 0.452 | 0.46 | 0.457 | 0.471
x2 = 0.0001801, x1 = 0.0006365 | 0.469 | 0.469 | 0.476 | 0.472 | 0.493
x2 = 0.0001801, x1 = 0.0006715 | 0.485 | 0.485 | 0.496 | 0.491 | 0.51
x2 = 0.0001802, x1 = 2.245e-05 | 0.15 | – | 0.147 | 0.156 | 0.152
x2 = 0.0001802, x1 = 4.474e-05 | 0.165 | 0.159 | 0.162 | 0.167 | 0.163
x2 = 0.0001802, x1 = 6.683e-05 | 0.177 | 0.174 | 0.182 | 0.179 | 0.176

CC[n+]1ccn(CCOC)c1.O=S(=O)([N-]S(=O)(=O)C(F)(F)F)C(F)(F)F + CO
Settings | viscosity [mPa·s]
288.15 K, x1 = 0.2999 | 7.19
288.15 K, x1 = 0.5 | 15.9
288.15 K, x1 = 0.5984 | 22.75
288.15 K, x1 = 0.7934 | 37.29
293.15 K, x1 = 1 | 43.63
298.15 K, x1 = 0.1 | 1.627
298.15 K, x1 = 0.2999 | 5.44
303.15 K, x1 = 0.2999 | 4.8
303.15 K, x1 = 0.5 | 9.83
303.15 K, x1 = 1 | 29.33
308.15 K, x1 = 0.1997 | 2.658
308.15 K, x1 = 0.2999 | 4.263
308.15 K, x1 = 0.3966 | 6.33
308.15 K, x1 = 0.5984 | 12
308.15 K, x1 = 0.7934 | 18.08
313.15 K, x1 = 0.5984 | 10.42
313.15 K, x1 = 0.6953 | 13.27
313.15 K, x1 = 0.7934 | 15.68
318.15 K, x1 = 0.2999 | 3.449

c1c[nH]cn1 + CC[n+]1ccn(C)c1.[Cl-]
298.2 K
Settings | viscosity [mPa·s]
x2 = 0.25 | 38.7
x2 = 0.5 | 82.5
